The values below come from patent publication US20220251079A1, “BENZO[B][1,8]NAPHTHYRIDINE ACETIC ACID DERIVATIVES AND METHODS OF USE” (STINGTHERA, INC., priority 2019, published 2022).

The target of test [1] is T1, human STING protein (140-379) (Homo sapiens, UniProt Q86WV6, H232R).
T1 construct: 6XHIS-SUMO-hSTING (140-379); made in house; host or cells: BL-21(DE3) E. coli, pET vector
As to the kind of experiment: Radiometric filtration binding competition assay (WT_FBA_HIS-SUMO-hSWAT). The note with it: read-out: WT-hSWAT IC50. Here is the method:
A radiometric filtration binding competition assay was performed to quantify the binding affinity of compounds of the present application for the human or mouse STING protein, or associated HAQ human isoform. The competition format filtration binding assay detects the ability of small molecule compounds from binding to and inhibiting the subsequent binding of a tritiated [H3] […] The resulting dose response was fit by non-linear regression to determine an IC50 value, from which a Ki value for each compound was extrapolated.
Briefly, the recombinant C-terminal ligand binding domain of the human STING protein (140-379) or mouse STING protein (139-328) [0.5 μM] was incubated in the presence of a compound of the present application (8 point, 2 fold dilution starting at 300 μM) for 30 min or under control conditions. […] The resulting complexes were then filtered, dried, and scintillation fluid was added and the remaining radio signal was measured to determine the degree of compound ligand inhibition. This assay format was optimized for both the WT and HAQ isoforms of the human protein and the mouse orthologue protein.
Parameters optimized: • a. Form of protein: 6×HIS-SUMO tag or untagged • b. Concentration of target protein: Minimum concentration that achieved >80 max signal • c. Assay DMSO concentration: 10%-0.1% • d. Assay Buffer: Base (Tris or phosphate), Salt concentration, +/−Tween (0.1-2%) • e. […] Probe Concentration: Minimum concentration that achieved max assay window • g. Assay Format: Scintillation Proximity Bead or Filtration Binding Plate • h. Assay Plate: 384 vs 96 well format • i. Assay incubation times for successive incubation steps
WT-hSWAT: WT_FBA_HIS-SUMO-hSWAT IC50 (μM) (“WT”=Wild-type); and WT-mSWAT: MOUSE_FBA_HIS-SUMO-mSWAT C50 (μM) which is the mouse isoform of STING protein.

A further test addresses T2, hSTING-R232 (Homo sapiens, UniProt Q86WV6, H232R).
T2 construct: recombinant mouse or human STING protein (aa140-379); 6xHis-SUMO elsewhere) (cleaved yes); made in house
Description: STING Differential Scanning Fluorimetry (DSF) assay, human. It counts as binding. The conditions noted are these: human STING R232-WT, 5 μM protein. Here is the method: A STING DSF assay was performed to determine protein thermostability shift in response to small molecule ligand binding. A STING thermostability shift assay based on differential scanning fluorimetry was used to measure (1) the net shift in melting temperature (ΔTm)between the apo and ligand-bound states of the STING protein and (2) the concentration of the thermal denaturation transition (FC50) as a surrogate measure of binding affinity (Kd). Briefly, recombinant mouse or human STING protein (aa140-379) comprising the C-terminal binding domain (R232-WT) were purified by affinity chromatography and further processed to remove the purification tag, followed by gel filtration to achieve purity >95%. Protein in assay buffer was transferred to a 384 well plate and incubated with the hydrophobic fluorescent dye SYBR Orange. A temperature ramp was applied to the plate and the resulting dye fluorescence was plotted as a function of temperature. The first derivative of this function (dF/dT) was then used to extrapolate the melting temperature of the protein at various concentrations of compound and determine the thermal denaturation profile of a protein/compound complex.
2. 5 μM purified Target STING Protein
4. Buffer: 100 mM NaCl, 30 mM HEPES, pH 7.5
5. Thermal Ramp: 0.5° C./min
7. 11 point, 2 fold dilution, duplicate, 300 μM high concentrations
(DSF heats the sample and reads unfolding from a dye or from intrinsic fluorescence.)

The target in a further test is T3, STING protein (Homo sapiens, UniProt Q86WV6, H232R).
T3 construct: host or cells: THP-1 dual reporter cells, TMEM173 modified from HAQ to R232 (THP1-dual-KI R232)
As to the kind of experiment: Cell based reporter assay of IRF activation (THP1-dual-KI R232, IRF luciferase). The note with it: THP-1; read-out: THP1-dual-KI R232_IRF(Luciferase)_Activity Maximum measured (%). From the text:
Cell reporter assays were developed to measure the ability of compounds of the application to activate the STING protein and activate both IRF/IFN and the NFkB signaling pathways in the myeloid derived cell line THP-1, which is commercially available from several suppliers. Briefly, THP-1 monocytes were transfected and selected for stable integration of 2 reporter constructs. Clones incorporating stably integrated vectors were further selected by antibiotic resistance to blastocidin and zeocin. The reporter constructs included: (1) firefly luciferase reporter gene under the control of an ISG54 promoter fused to five interferon (IFN)-stimulated response elements to measure IRF transcription factor binding activity and (2) secreted embryonic alkaline phosphatase reporter gene under transcription control of an IFN-beta minimal promoter fused to 5 copies of the NFkB consensus transcriptional response element and 3 copies of the c-Rel binding site.
The resulting THP-1 cell line was further modified to incorporate 3 amino acid point mutations (H71R A230G Q293R). This modification of the native TMEM173 gene in THP-1 cells (HAQ) was designed to produce a cell reporter that expressed the most common allelic variant in the human population (THP-1 R232, available from InvivoGen). Alternatively, the TMEM173 gene was knocked out to provide a congenic control to counter-screen for compound activation that was independent of the STING protein (THP-1 STING KO).
Once cell lines were established, reporter assay protocols were developed and optimized to screen small molecule compounds for agonist activity. Assay optimization for efficacy and Z′ value included titration of the following parameters:
1. No pre-activation with PMA
2. […]cells/well in 96 well plate format
7. Cell Titer Glo reagent (Promega) following supermatant removal
9. 8 point, 2 fold, duplicate starting at 150 μM PP28T

T3 sequence (Q86WV6 whole entry H232R): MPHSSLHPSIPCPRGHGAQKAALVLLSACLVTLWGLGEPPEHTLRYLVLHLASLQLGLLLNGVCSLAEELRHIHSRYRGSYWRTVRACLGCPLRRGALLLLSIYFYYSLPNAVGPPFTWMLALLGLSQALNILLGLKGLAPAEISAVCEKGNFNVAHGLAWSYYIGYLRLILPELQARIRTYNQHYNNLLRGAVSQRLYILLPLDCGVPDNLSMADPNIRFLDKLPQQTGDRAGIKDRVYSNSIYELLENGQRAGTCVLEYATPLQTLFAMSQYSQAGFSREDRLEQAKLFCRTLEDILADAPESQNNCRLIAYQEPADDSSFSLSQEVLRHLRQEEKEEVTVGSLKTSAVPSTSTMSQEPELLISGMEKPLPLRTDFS
T2 sequence (Q86WV6 140-379 H232R): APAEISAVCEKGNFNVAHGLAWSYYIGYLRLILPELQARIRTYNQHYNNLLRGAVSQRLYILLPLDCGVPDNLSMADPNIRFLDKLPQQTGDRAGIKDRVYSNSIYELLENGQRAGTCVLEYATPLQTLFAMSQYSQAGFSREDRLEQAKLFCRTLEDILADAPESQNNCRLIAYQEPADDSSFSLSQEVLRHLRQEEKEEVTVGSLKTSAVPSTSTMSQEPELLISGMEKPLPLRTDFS
T1 sequence (Q86WV6 140-379 H232R): as above

One may read the IC50 as the point on the concentration scale where inhibition reaches its midpoint. For `CN(C)c1ccc2c(=O)c3ccc(Cl)c(-c4ccccc4)c3n(CC(=O)O)c2n1` [Compound 79, 2-(8-chloro-2-(dimethylamino)-5-oxo-9-phenylbenzo[b][1,8]naphthyridin-10(5H)-yl)acetic acid], in test [1], the IC50 was in the range of 20 to 100 µM. Moreover, the “WT_DSF_hSWAT Tm Shift (° C.)” value on hSTING-R232 is listed as “D (“D” > 7° C.)”. Also, the Emax at STING protein was over 50%.

On to `COCCN(C)c1nc2c(cc1Cl)c(=O)c1ccc(Cl)c(SC)c1n2CC(=O)O` [Compound 75, sodium 2-(3,8-dichloro-2-((2-methoxyethyl)(methyl)amino)-9-(methylthio)-5-oxobenzo[b][1,8]naphthyridin-10(5H)-yl)acetate], for which the IC50 in test [1] was in the range of 20 to 100 µM. Moreover, the “WT_DSF_hSWAT Tm Shift (° C.)” value on hSTING-R232 was “D (“D” > 7° C.)”. The Emax at STING protein is over 50%.

Take `CSc1c(Cl)ccc2c(=O)c3ccc(Nc4ccccc4F)nc3n(CC(=O)O)c12` [Compound 57, sodium 2-(8-chloro-2-((2-fluorophenyl)amino)-9-(methylthio)-5-oxobenzo[b][1,8]naphthyridin-10(5H)-yl)acetate]: the IC50 in test [1] is under 20 µM. In addition, the “WT_DSF_hSWAT Tm Shift (° C.)” value at hSTING-R232 is on record as “D (“D” > 7° C.)”. The Emax on STING protein is over 50%.

On to `CCOc1c(Cl)ccc2c(=O)c3ccc(N(C)C)nc3n(CC(=O)O)c12` [Compound 23, sodium 2-(8-chloro-2-(dimethylamino)-9-ethoxy-5-oxobenzo[b][1,8]naphthyridin-10(5H)-yl)acetate], for which the IC50 in test [1] lay in the range of 100 to 300 µM. Besides, the “WT_DSF_hSWAT Tm Shift (° C.)” value on hSTING-R232 is given as “C (“C” = 2-7° C.)”. In addition, the Emax at STING protein was over 50%.

Regarding `CSc1c(Cl)ccc2c(=O)c3ccc(N(CC4CC4)CC4COC4)nc3n(CC(=O)O)c12` [Compound 38, sodium 2-(8-chloro-2-((cyclopropylmethyl)(oxetan-3-ylmethyl)amino)-9-(methylthio)-5-oxobenzo[b][1,8]naphthyridin-10(5H)-yl)acetate], the IC50 in test [1] was 20 to 100 µM. Also, the “WT_DSF_hSWAT Tm Shift (° C.)” value on hSTING-R232 is “D (“D” > 7° C.)”. Also, the Emax on STING protein was over 50%.

Regarding `CN(C)c1c(Cl)ccc2c(=O)c3ccc(Nc4ccccc4)nc3n(CC(=O)O)c12` [Compound 6], the IC50 in test [1] was under 20 µM. In addition, at hSTING-R232, the “WT_DSF_hSWAT Tm Shift (° C.)” value is listed as “D (“D” > 7° C.)”. Further, on STING protein, the Emax was over 50%.

As for `CO[C@H]1C[C@@H](N(C)c2ccc3c(=O)c4ccc(Cl)c(SC)c4n(CC(=O)O)c3n2)C1` (single isomer, unassigned) [Compound 44, 2-(8-chloro-2-(((1s,3s)-3-methoxycyclobutyl) (methyl)amino)-9-(methylthio)-5-oxobenzo[b][1,8]naphthyridin-10(5H)-yl)acetic acid], the IC50 in test [1] is 20 to 100 µM. Moreover, on hSTING-R232, the “WT_DSF_hSWAT Tm Shift (° C.)” value was “D (“D” > 7° C.)”. For the same compound, the Emax on STING protein is over 50%.

For the compound `CCOc1c(Cl)ccc2c(=O)c3ccc(N(C)CC4CCOCC4)nc3n(CC(=O)O)c12` [Compound 33, 2-(8-chloro-9-ethoxy-2-(methyl((tetrahydro-2H-pyran-4-yl)methyl)amino)-5-oxobenzo[b][1,8]naphthyridin-10(5H)-yl)acetic acid], the IC50 in test [1] was in the range of 20 to 100 µM. On hSTING-R232, the “WT_DSF_hSWAT Tm Shift (° C.)” value is on record as “D (“D” > 7° C.)”. The Emax on STING protein is over 50%.

For the compound `CCOc1c(Cl)ccc2c(=O)c3ccc(N(C)CCn4ccnc4)nc3n(CC(=O)O)c12` [Compound 72, sodium 2-(8-chloro-9-ethoxy-2-{[2-(imidazole-1-yl)ethyl](methyl)amino}-5-oxobenzo[b]1,8-naphthyridin-10-yl)acetate], the IC50 in test [1] was in the range of 100 to 300 µM. The “WT_DSF_hSWAT Tm Shift (° C.)” value at hSTING-R232 was “D (“D” > 7° C.)”. Also, the Emax on STING protein lay in the range of 5 to 25%.

On to `CSc1c(Cl)ccc2c(=O)c3ccc(N(C)C)nc3n(CC(=O)O)c12` [Compound 22, sodium 2-(8-chloro-2-(dimethylamino)-9-(methylthio)-5-oxobenzo[b][1,8]naphthyridin-10(5H)-yl)acetate], for which the IC50 in test [1] is 20 to 100 µM. Besides, at hSTING-R232, the “WT_DSF_hSWAT Tm Shift (° C.)” value was “D (“D” > 7° C.)”. Moreover, on STING protein, the Emax is over 50%.

For `Cc1ccc2c(=O)c3ccc(Cl)c(N(C)C)c3n(CC(=O)O)c2n1` [Compound 4], the concentration for half-maximal inhibition (IC50) in test [1] lay within 20 to 100 µM. The “WT_DSF_hSWAT Tm Shift (° C.)” value on hSTING-R232 was “D (“D” > 7° C.)”. On STING protein, the Emax was over 50%.

`CSc1c(Cl)ccc2c(=O)c3ccc(NCC4CC(F)(F)C4)nc3n(CC(=O)O)c12` [Compound 54, Sodium 2-(8-chloro-2-(((3,3-difluorocyclobutyl)methyl)amino)-9-(methylthio)-5-oxobenzo[b][1,8]naphthyridin-10(5H)-yl)acetate]: the 50% inhibitory concentration (IC50) in test [1] lay within 20 to 100 µM. Further, the “WT_DSF_hSWAT Tm Shift (° C.)” value on hSTING-R232 is listed as “D (“D” > 7° C.)”. Besides, on STING protein, the Emax is over 50%.

For `CSc1c(Cl)ccc2c(=O)c3ccc(C(C)(C)C)nc3n(CC(=O)O)c12` [Compound 12], the IC50 in test [1] is under 20 µM. At hSTING-R232, the “WT_DSF_hSWAT Tm Shift (° C.)” value is listed as “D (“D” > 7° C.)”. The Emax on STING protein was over 50%.

For the compound `CCN(c1ccc2c(=O)c3ccc(Cl)c(SC)c3n(CC(=O)O)c2n1)C1COC1` [Compound 30, sodium 2-(8-chloro-2-(ethyl(oxetan-3-yl)amino)-9-(methylthio)-5-oxobenzo[b][1,8]naphthyridin-10(5H)-yl)acetate], the IC50 in test [1] is under 20 µM. In addition, the “WT_DSF_hSWAT Tm Shift (° C.)” value on hSTING-R232 is “D (“D” > 7° C.)”. The Emax on STING protein was over 50%.

Turning to `CSc1c(Cl)ccc2c(=O)c3ccc(C(C)=O)nc3n(CC(=O)O)c12` [Compound 32, sodium 2-(2-acetyl-8-chloro-9-(methylthio)-5-oxobenzo[b][1,8]naphthyridin-10(5H)-yl)acetate], the IC50 in test [1] fell in the range of 100 to 300 µM. The “WT_DSF_hSWAT Tm Shift (° C.)” value at hSTING-R232 is reported as “C (“C” = 2-7° C.)”. Moreover, the Emax at STING protein was over 50%.

As to `CO[C@H]1C[C@H](N(C)c2ccc3c(=O)c4ccc(C)c(N(C)C)c4n(CC(=O)O)c3n2)C1` [Compound 66, 2-(9-(dimethylamino)-2-(((1r,3r)-3-methoxycyclobutyl)(methyl)amino)-8-methyl-5-oxobenzo[b][1,8]naphthyridin-10(5H)-yl)acetic acid], in test [1], the IC50 fell in the range of 100 to 300 µM. For the same compound, the “WT_DSF_hSWAT Tm Shift (° C.)” value at hSTING-R232 is “C (“C” = 2-7° C.)”.

For `CSc1c(Cl)ccc2c(=O)c3cc(Cl)c(N(C)CC4CCOCC4)nc3n(CC(=O)O)c12` [Compound 76, sodium 2-(3,8-dichloro-2-(methyl((tetrahydro-2H-pyran-4-yl)methyl)amino)-9-(methylthio)-5-oxobenzo[b][1,8]naphthyridin-10(5H)-yl)acetate], the IC50 in test [1] is under 20 µM. In addition, the “WT_DSF_hSWAT Tm Shift (° C.)” value on hSTING-R232 is given as “D (“D” > 7° C.)”.
